Like-named read-outs stand apart in the source and are kept apart here.
Experiments:
[1] = system: mixture of Pseudomonas aeruginosa ATCC 10145 and Staphylococcus aureus ATCC 6538; test: Kill assay (MBC, synergy index); assay type: cell-based; conditions: 37° C., 2 hours
Experimental: This assay is used as a preliminary evaluation of synergy between the actives. The procedure is as follows. A mineral salts solution (0.2203 g of CaCl2, 0.1847 g of MgSO4, and 0.2033 g of NaHCO3 in 1 L water, approximately pH 8) is inoculated with equal amounts (about 10^7 CFU/ml) of a mixture of Pseudomonas aeruginosa ATCC 10145 and Staphylococcus aureus ATCC 6538. Aliquots of the cell suspension are then treated with 2,2-dibromomalonamide (“DBMAL”), […], and their combinations at various concentration levels. […] The MBC values are then used to calculate a synergy index (SI) values.
Summaries of the kill assay results are presented in the individual Examples. In each table, MBC values for each biocide and the blends tested are presented Likewise, the Synergy Index (“SI”) values for the combinations are listed. SI is calculated with the following equation: Synergy Index=Ca/CA+Mb/CB […]

[2] = system: mixture of Pseudomonas aeruginosa, Klebsiella pneumoniae, Staphylococcus aureus, and Bacillus subtilis; test: Growth inhibition assay; assay type: cell-based; conditions: 24 h; for inhibition at 0.19 µg/mL / inhibition at 0.39 µg/mL / inhibition at 0.78 µg/mL / inhibition at 1.56 µg/mL / inhibition at 3.13 µg/mL / inhibition at 6.25 µg/mL / inhibition at 12.5 µg/mL / inhibition at 25 µg/mL: read-out: % Inhibition of growth by DBMAL
Description: The growth inhibition assay used in the Examples measures inhibition of growth (or lack thereof) of a microbial consortium. Inhibition of growth can be the result of killing of the cells (so no growth occurs), killing of a significant portion of the populations of cells so that regrowth requires a prolonged time, or inhibition of growth without killing (stasis). Regardless of the mechanism of action, the impact of a biocide (or combination of biocides) can be measured over time on the basis of an increase in the size of the community.
The assay measures the efficacy of one or more biocides at preventing growth of a consortium of bacteria in a dilute mineral salts medium. The medium contains (in mg/l) the following components: FeCl3.6H2O (1); CaCl2.2H2O (10); MgSO4.7H2O (22.5); (NH4)2SO4 (40); KH2PO4 (10); K2HPO4 (25.5); Yeast Extract (10); and glucose (100). After all components are added to deionized water, the pH of the medium is adjusted to 7.5. Following filter sterilization, aliquots are dispensed in 100 ul quantities to sterile microtiter plate wells. Dilutions of DBMAL and/or “Biocide B” are then added to the microtiter plate. After preparing the combinations of actives as illustrated below, each well is inoculated with 100 μl of a cell suspension containing ca. 1×10^6 cells per milliliter of a mixture of Pseudomonas aeruginosa, Klebsiella pneumoniae, Staphylococcus aureus, and Bacillus subtilis. The final total volume of medium in each well is 300 μl. […] The resulting matrix allows testing of eight concentrations of each active and 64 combinations of actives in the ratios (of actives).
Controls (not shown) contain the medium with no biocide added. After preparing the combinations of actives as illustrated above, each well is inoculated with 100 μl of a cell suspension containing ca. 1×10^6 cells per milliliter of a mixture of Pseudomonas aeruginosa, Klebsiella pneumoniae, Staphylococcus aureus, and Bacillus subtilis. The final total volume of medium in each well is 300 μl.
Immediately after the microtiter plates are prepared, the optical density (OD) readings for each well is measured at 580 nm and the plates are then incubated at 37° C. for 24 hr. After the incubation period, the plates are gently agitated before OD580 values are collected. The OD580 values at T0 are subtracted from T24 values to determine the total amount of growth (or lack thereof) that occurs. These values are used to calculate the percent inhibition of growth caused by the presence of each biocide and each of the 64 combinations. A 90% inhibition of growth is used as a threshold for calculating synergy index (SI) values with the following equation: Synergy Index=MDBMAL/CDBMAL+MB/CB
where • CDBMAL: Concentration of DBMAL required to inhibit ˜90% of bacterial growth when used alone • CB: Concentration of biocide (B) required to inhibit ˜90% of bacterial growth when used alone. • MDBMAL: Concentration of DBMAL required to inhibit ˜90% of bacterial growth when used in combination with biocide (B). • MB: Concentration of biocide (B) required to inhibit ˜90% of bacterial growth when used in combination with DBMAL The SI values are interpreted as follows: • SI<1: Synergistic combination • SI=1: Additive combination • SI>1: Antagonistic combination

For `NC(=O)C(Br)(Br)C(N)=O` [DBMAL, 2,2-dibromomalonamide], the “MBC (minimum biocide concentration needed to completely kill), biocide alone” value [1] was 66.7 µg/mL, the inhibition at 0.19 µg/mL ([2]; Table 3, DBMAL alone 0.19 mg/l) was 0% and the inhibition at 0.39 µg/mL ([2]; Table 3, DBMAL alone 0.39 mg/l) was 0%. The inhibition at 0.78 µg/mL ([2]; Table 3, DBMAL alone 0.78 mg/l) was 34%, the inhibition at 1.56 µg/mL ([2]; Table 3, DBMAL alone 1.56 mg/l) was 11% and the inhibition at 3.13 µg/mL ([2]; Table 3, DBMAL alone 3.13 mg/l) was 38%. The inhibition at 6.25 µg/mL ([2]; Table 3, DBMAL alone 6.25 mg/l) was 50%, the inhibition at 12.5 µg/mL ([2]; Table 3, DBMAL alone 12.5 mg/l) was 107% and the inhibition at 25 µg/mL ([2]; Table 3, DBMAL alone 25.0 mg/l) was 105%. The inhibition at 0.19 µg/mL ([2]; Table 6, DBMAL alone 0.19 mg/l) was 0%, the inhibition at 0.39 µg/mL ([2]; Table 6, DBMAL alone 0.39 mg/l) was 0% and the inhibition at 0.78 µg/mL ([2]; Table 6, DBMAL alone 0.78 mg/l) was 18%. For the same compound, the inhibition at 1.56 µg/mL ([2]; Table 6, DBMAL alone 1.56 mg/l) was 34%, the inhibition at 3.13 µg/mL ([2]; Table 6, DBMAL alone 3.13 mg/l) was 50% and the inhibition at 6.25 µg/mL ([2]; Table 6, DBMAL alone 6.25 mg/l) was 44%. The inhibition at 12.5 µg/mL ([2]; Table 6, DBMAL alone 12.5 mg/l) was 97%, the inhibition at 25 µg/mL ([2]; Table 6, DBMAL alone 25 mg/l) was 100% and the inhibition at 0.19 µg/mL ([2]; Table 8, DBMAL alone 0.19 mg/l) was 0%. It also gave an inhibition at 0.39 µg/mL ([2]; Table 8, DBMAL alone 0.39 mg/l) of 2%, an inhibition at 0.78 µg/mL ([2]; Table 8, DBMAL alone 0.78 mg/l) of 0% and an inhibition at 1.56 µg/mL ([2]; Table 8, DBMAL alone 1.56 mg/l) of 0%. For the same compound, the inhibition at 3.13 µg/mL ([2]; Table 8, DBMAL alone 3.13 mg/l) was 0%, the inhibition at 6.25 µg/mL ([2]; Table 8, DBMAL alone 6.25 mg/l) was 0% and the inhibition at 12.5 µg/mL ([2]; Table 8, DBMAL alone 12.5 mg/l) was 100%. It also gave an inhibition at 25 µg/mL ([2]; Table 8, DBMAL alone 25.0 mg/l) of 100%, an inhibition at 0.19 µg/mL ([2]; Table 10, DBMAL alone 0.19 mg/l) of 7% and an inhibition at 0.39 µg/mL ([2]; Table 10, DBMAL alone 0.39 mg/l) of 0%. The inhibition at 0.78 µg/mL ([2]; Table 10, DBMAL alone 0.78 mg/l) was 0%, the inhibition at 1.56 µg/mL ([2]; Table 10, DBMAL alone 1.56 mg/l) was 0% and the inhibition at 3.13 µg/mL ([2]; Table 10, DBMAL alone 3.13 mg/l) was 0%. The inhibition at 6.25 µg/mL ([2]; Table 10, DBMAL alone 6.25 mg/l) was 52%, the inhibition at 12.5 µg/mL ([2]; Table 10, DBMAL alone 12.5 mg/l) was 99% and the inhibition at 25 µg/mL ([2]; Table 10, DBMAL alone 25.0 mg/l) was 100%. For the same compound, the inhibition at 0.19 µg/mL ([2]; Table 12 (4,4-D), DBMAL alone 0.19 mg/l) was 0%, the inhibition at 0.39 µg/mL ([2]; Table 12 (4,4-D), DBMAL alone 0.39 mg/l) was 6% and the inhibition at 0.78 µg/mL ([2]; Table 12 (4,4-D), DBMAL alone 0.78 mg/l) was 0%. It also gave an inhibition at 1.56 µg/mL ([2]; Table 12 (4,4-D), DBMAL alone 1.56 mg/l) of 2%, an inhibition at 3.13 µg/mL ([2]; Table 12 (4,4-D), DBMAL alone 3.13 mg/l) of 0% and an inhibition at 6.25 µg/mL ([2]; Table 12 (4,4-D), DBMAL alone 6.25 mg/l) of 0%. The inhibition at 12.5 µg/mL ([2]; Table 12 (4,4-D), DBMAL alone 12.5 mg/l) was 100%, the inhibition at 25 µg/mL ([2]; Table 12 (4,4-D), DBMAL alone 25.0 mg/l) was 100% and the inhibition at 0.19 µg/mL ([2]; Table 12 (TEHT), DBMAL alone 0.19 mg/l) was 13%. The inhibition at 0.39 µg/mL ([2]; Table 12 (TEHT), DBMAL alone 0.39 mg/l) was 8%, the inhibition at 0.78 µg/mL ([2]; Table 12 (TEHT), DBMAL alone 0.78 mg/l) was 30% and the inhibition at 1.56 µg/mL ([2]; Table 12 (TEHT), DBMAL alone 1.56 mg/l) was 32%. It also gave an inhibition at 3.13 µg/mL ([2]; Table 12 (TEHT), DBMAL alone 3.13 mg/l) of 45%, an inhibition at 6.25 µg/mL ([2]; Table 12 (TEHT), DBMAL alone 6.25 mg/l) of 32% and an inhibition at 12.5 µg/mL ([2]; Table 12 (TEHT), DBMAL alone 12.5 mg/l) of 97%. The inhibition at 25 µg/mL ([2]; Table 12 (TEHT), DBMAL alone 25.0 mg/l) was 96% and the “concentration needed to provide at least 90% inhibition of growth” value ([2]; biocide alone) was 12.5 mg/L.

— US8747873B2, “Compositions of dibromomalonamide and their use as biocides” (Dow Global Technologies LLC, priority 2012, dated 2014)
